Data as given in paper PMC7916174, “Preliminary Study of a 1,5-Benzodiazepine-Derivative Labelled with Indium-111 for CCK-2 Receptor Targeting” (Molecules, 2021).

Experiments:
A549 cells = assay: [111In]In-IP-001 cellular uptake; assay type: cell-based, human
Protocol: A549 epithelial lung cancer cells were seeded in 6-well plates (20,000/cm^2) and allowed to adhere overnight. The following day, the medium was removed and radiotracer uptake was studied by incubating 2 × 10^5 cells at 37 °C in 2 mL of culture medium added to 30 µL (ca. 2 MBq, 1.35 μg, 1 nmol) of [^111In]In-IP-001. Uptake was monitored at 2, 4, 8, and 24 h. At these time points, the medium was removed and cells were washed twice with 2 mL of ice-cold PBS. Finally, cells were detached with 2 mL of a 0.25% trypsin/EDTA solution at 37 °C and centrifuged to separate the supernatant from the cells pellet. The radioactivity associated with the pellets was measured in a γ-spectrometer and corrected for decay. All experiments were performed in triplicate.

[1] = Stability of the radiotracer in human serum; assay type: in vitro ADME; conditions: for Stability (%), amount of intact radiotracer: Human serum
Protocol: (§1) HPLC analyses on indium-111-labelled IP-001 were performed on an S1125 HPLC pump system, and the column used was an Acclaim 120 C18, 3 × 150 mm, 3 µm 120 Å pore size; flow: 0.6 mL/min; gradient: minutes 0–2 A: 70% B: 30%; minutes 2–12 B: 30% -> 95%; and minutes 12–15 B: 95% -> 30%, where A: H2O (0.1% TFA) and B: MeCN. Detection was carried out with an S3245 UV–Vis and an S3700 gamma detector system.
(§2) TLC plates used for the assessment of the preparative reactions were silica gel 60 […] (0.2 mm, Merck) with the eluents mentioned for the specific product in the following paragraphs. Column chromatography was carried out with silica gel 60 (0.063–0.100 mm, Merck), and elution was performed using the eluent described for the specific preparations. The radioactive incorporation and stability of [^111In]In-IP-001 were assessed on ITLC-SG plates, developed in a 1 M ammonium acetate/MeOH 1:1 v/v solution, by using a flatbed-imaging scanner (Cyclone, Perkin Elmer).
(§3) The stability of [^111In]In-IP-001 solutions (0.5 mL, 10 nmol, 18 MBq) was assessed by means of radio-TLC or RP-HPLC at various temperatures (4, 24, and 37 °C) and in the presence of different media up to 120 h after preparation. The studies were performed by incubating the radiotracer with (i) a 0.9% NaCl solution at a 9:1 ratio, (ii) a 0.1 M HEPES solution at a 9:1 ratio, (iii) a 0.1 M EDTA solution at 9:1 and 1:1 ratios, (iv) human serum (HS) at a 9:1 ratio, and (v) HB at a 1:1 ratio. After TLC analysis, samples incubated with HB were centrifuged at 3000 rpm for 10 min to precipitate blood cells, and 200 μL of a MeCN/H2O/TFA 50/45/5 v/v/v solution was added to 400 μL of the supernatant. After another centrifugation under the same conditions, the supernatant was discarded and the residual radioactivity due to the proteins bound fraction was measured in a dose calibrator. Lipophilicity calculation were performed in octanol–water with the shaking flask method, as already described elsewhere. All experiments were performed in triplicate.

[2] = Lipophilicity, octanol-water shaking flask method; assay type: physicochemical
Protocol: as §3

A549 xenograft tumors [3] = assay: Blocking experiment with 50-fold molar excess of unlabeled IP-001, ex vivo biodistribution; assay type: in vivo, BALB/c nude mice
Protocol: (§4) Homozygous female BALB/c nude J:NU (JAX stock number 007850) mice were purchased from Jackson Laboratories (Bar Harbor, ME, USA). Mice were 4 weeks old at arrival, and they were hosted in an IVC system (Smart Flow AHU, Tecniplast) with autoclaved rodent bedding hosting 3–4 mice per cage. Mice were fed with autoclaved rodent food and water ad libitum. The inoculation of A549 tumor cell line was performed by the subcutaneous injection of 5 × 10^6 cells/mouse in 100 uL of […] medium (RPMI added of 10% FBS, 1% penicillin-streptomycin, 1% glutamine) into the right shoulder. […] Inoculation was carried out at 5 weeks of age after one week in the facility for acclimatization purposes. Mice were monitored every 2–3 days by measuring weight and tumor dimensions with an electronic caliper. For this purpose, two perpendicular dimensions were noted and volumes of the tumors were calculated with the formula 0.5 × L × W^2, where L is the measurement of the longest axis and W is the measurement of the axis perpendicular to L, in millimeters.
Tumors were allowed to grow for about five weeks until they reached 0.5–1.0 cm of size in one dimension (i.e., around 50–250 mm^3 volume), and then mice were divided in two groups. The experimental group (n = 5) was intravenously injected (retro-orbital venous sinus) with 150 μL of a [^111]In-IP-001 solution (2.06 nmol, 7.4MBq), while the blocked group (n = 5) was injected with 150 μL of a [^111]In-IP-001 solution added to a 50-fold molar excess of cold ligand. All injections were performed with the animals under isoflurane anesthesia (1–3%), using 30G ultra-fine insulin syringes. […]
(§5) For biodistribution studies, the injections were performed as described above, and 3 mice for both groups were sacrificed at 4 and 24 h post injection using 2% isoflurane. Main organs and tissues were removed, weighed, and counted together with blood samples, muscle, and urine by a γ-counter system (Cobra II from Packard, Canberra, ME, USA). […]

A549 xenograft tumors [4] = assay: Ex vivo biodistribution in A549 tumor-bearing mice; parameters: species or system BALB/c nude mice
Protocol: as §4
Tumors were allowed to grow for about five weeks until they reached 0.5–1.0 cm of size in one dimension (i.e., around 50–250 mm^3 volume), and then mice were divided in two groups. The experimental group (n = 5) was intravenously injected (retro-orbital venous sinus) with 150 μL of a [^111]In-IP-001 solution (2.06 nmol, 7.4MBq), while the blocked group (n = 5) was injected with 150 μL of a [^111]In-IP-001 solution added to a 50-fold molar excess of cold ligand. All injections were performed with the animals under isoflurane anesthesia (1–3%), using 30G ultra-fine insulin syringes. Real-time, live, and fast dynamic screening studies were performed right after injection and on selected time points post-injection, on a dedicated desktop, mouse-sized, planar scintigraphic system (γ-eye^TM by BIOEMTECH, Athens, Greece). The system supports fusion with a digital mouse photograph for anatomical co-registration. The main detector is based on two position-sensitive photomultiplier tubes coupled to a CsI(Na) pixelated scintillator and a medium-energy lead collimator with parallel hexagonal holes that supports a range of SPECT isotopes. The system’s field of view is 5 × 10 cm^2, with a spatial resolution of ~2 mm. […] This allowed for a fast test, right after injection, to check whether the injection was successful, and on later time points to quickly evaluate the bio-kinetics of the tracer. Tomographic SPECT/CT imaging was performed with y-CUBE^TM and x-CUBE^TM (Molecubes, Belgium), respectively, at the same selected time points post-injection. The SPECT system provides a spatial resolution of 0.6 mm for mouse imaging and of 1.5 mm for rat imaging. The CT system performs a spiral scan, it can provide images with 100 um resolution, and images were acquired with 50 kVp. Mouse imaging was performed by keeping the mice anaesthetized under isoflurane and under a constant temperature of 37 °C. SPECT scans were acquired with a 45 min duration, and each SPECT scan was followed by a high-resolution CT scan for co-registration purposes. The SPECT data were reconstructed through a maximum-likelihood expectation-maximization (MLEM) algorithm, with a 500 μm voxel size and […]. CT data were reconstructed through an iterative image space reconstruction algorithm (ISRA) algorithm with a 100 μm voxel size. Tomographic images are presented through maximum intensity projection (MIP) view). The experimental group was imaged at 2, 4, 8, and 24 h post-injection with both imaging systems, while the blocked group was imaged at 4 and 24 h.
as §5

[5] = Stability of the radiotracer in human blood; assay type: in vitro ADME; conditions: for Stability (%), amount of intact radiotracer: Human blood
Protocol: as §1, §2, §3

[6] = Stability of the radiotracer in NaCl 0.9%, HEPES and EDTA (radio-TLC / RP-HPLC); assay type: physicochemical
Protocol: as §1, §2, §3

CCK-2R = test system: CCK-2R; parameters: method as in PMID 24325469; conditions: cited from earlier work

CC(C)(C)C(=O)CN1C(=O)C(NC(=O)Nc2cccc(C(=O)NCCCCCCNC(=O)CCC(=O)NCCCOCCOCCOCCCNC(=O)CN3CCN(CC(=O)[O-])CCN(CC(=O)[O-])CCN(CC(=O)[O-])CC3)c2)CN(C2CCCCC2)c2ccccc21.[111In+3] (stereo not shown) [[^111In]In-IP-001]
maximal accumulation (percent of the added radioactivity per million cells) (A549 cells; 2 MBq, 4 h of incubation): around 5% | incubation time of maximal accumulation (A549 cells; incubation up to 24 h): 4 h | Stability (%), amount of intact radiotracer ([1]; 4 h): 98 ± 2% | Stability (%), amount of intact radiotracer ([1]; 8 h): 96 ± 3% | Stability (%), amount of intact radiotracer ([1]; 24 h): 95 ± 3% | Stability (%), amount of intact radiotracer ([1]; 72 h): 94 ± 2% | Stability (%), amount of intact radiotracer ([1]; 120 h): 93 ± 1% | percentage of intact compound ([1]; human serum, after 48 h): higher than 95% | partition coefficient (LogP) [2]: 0.45 | difference in radioactivity in organs and tumors between normal and blocked groups (A549 xenograft tumors [3]; 4 h post injection): no significant differences | tumor uptake, blocked group (A549 xenograft tumors [3]; 24 h post injection, with 50-fold molar excess of unlabeled IP-001, n = 3): 0.84 ± 0.33 % IA/g | lower uptake in the tumor tissue in the blocking setting (A549 xenograft tumors [3]; blocked versus experimental group, 24 h): 45% | spleen uptake (A549 xenograft tumors [4]; 4 h post injection (abstract)): 3.88 ± 0.36 % ID/cc | tumor uptake (A549 xenograft tumors [4]; 4 h post injection, i.v., n = 3): 2.36 ± 0.26 % IA/g | blood uptake (A549 xenograft tumors [4]; 4 h post injection, n = 3): 4.21 ± 0.40 % IA/g | intestines uptake (A549 xenograft tumors [4]; 4 h post injection, n = 3): 2.39 ± 0.28 % IA/g | kidneys uptake (A549 xenograft tumors [4]; 4 h post injection, n = 3): 6.99 ± 0.97 % IA/g | liver uptake (A549 xenograft tumors [4]; 4 h post injection, n = 3): 8.25 ± 2.21 % IA/g | lungs uptake (A549 xenograft tumors [4]; 4 h post injection, n = 3): 2.82 ± 0.21 % IA/g | pancreas uptake (A549 xenograft tumors [4]; 4 h post injection, n = 3): 2.03 ± 0.16 % IA/g | spleen uptake (A549 xenograft tumors [4]; 4 h post injection, n = 3): 3.88± 0.36 % IA/g | intestines uptake (A549 xenograft tumors [4]; 24 h post injection): 0.55 ± 0.29 % IA/g | kidneys uptake (A549 xenograft tumors [4]; 24 h post injection): 3.11 ± 0.52 % IA/g | liver uptake (A549 xenograft tumors [4]; 24 h post injection): 3.55 ± 1.17 % IA/g | pancreas uptake (A549 xenograft tumors [4]; 24 h post injection): 0.26 ± 0.04 % IA/g | tumor to blood (T/B) ratio (A549 xenograft tumors [4]; 24 h post injection): 10.19 | tumor to kidneys ratio (A549 xenograft tumors [4]; 24 h post injection): 0.48 | tumor to liver ratio (A549 xenograft tumors [4]; 24 h post injection): 0.47 | tumor to muscle (T/M) ratio (A549 xenograft tumors [4]; 24 h post injection): 15.72 | tumor/intestines ratio (A549 xenograft tumors [4]; 24 h post injection): 2.76 | tumor/lungs ratio (A549 xenograft tumors [4]; 24 h post injection): 2.02 | tumor/pancreas ratio (A549 xenograft tumors [4]; 24 h post injection): 5.85 | tumor uptake (A549 xenograft tumors [4]; 24 h post injection, n = 3): 1.52 ± 0.71 % IA/g | accumulated radiotracer still retained in tumor tissue (A549 xenograft tumors [4]; 24 h post-injection relative to 4 h): 65% | decrease of the signal over 24 h (A549 xenograft tumors [4]; intestines, lungs, and pancreas, from 4 h to 24 h): more than 73% | Stability (%), amount of intact radiotracer ([5]; 4 h): 98 ± 2% | Stability (%), amount of intact radiotracer ([5]; 8 h): 95 ± 1% | Stability (%), amount of intact radiotracer ([5]; 24 h): 95 ± 2% | Stability (%), amount of intact radiotracer ([5]; 72 h): 93 ± 1% | Stability (%), amount of intact radiotracer ([5]; 120 h): 93 ± 2% | percentage of intact compound ([5]; human blood (HB), after 48 h): higher than 95% | Stability (%), amount of intact radiotracer ([6]; EDTA (0.1 M), 4 h): 98 ± 1% | Stability (%), amount of intact radiotracer ([6]; EDTA (0.1 M), 8 h): 98 ± 1% | Stability (%), amount of intact radiotracer ([6]; EDTA (0.1 M), 24 h): 96 ± 2% | Stability (%), amount of intact radiotracer ([6]; EDTA (0.1 M), 72 h): 96 ± 3% | Stability (%), amount of intact radiotracer ([6]; HEPES (0.1 M), 4 h): 98 ± 2% | Stability (%), amount of intact radiotracer ([6]; HEPES (0.1 M), 8 h): 97 ± 3% | Stability (%), amount of intact radiotracer ([6]; HEPES (0.1 M), 24 h): 97 ± 3% | Stability (%), amount of intact radiotracer ([6]; HEPES (0.1 M), 72 h): 96 ± 1% | Stability (%), amount of intact radiotracer ([6]; NaCl 0.9%, 4 h): 98 ± 2% | Stability (%), amount of intact radiotracer ([6]; NaCl 0.9%, 8 h): 98 ± 2% | Stability (%), amount of intact radiotracer ([6]; NaCl 0.9%, 24 h): 97 ± 2% | Stability (%), amount of intact radiotracer ([6]; NaCl 0.9%, 72 h): 97 ± 2%

CC(C)(C)C(=O)CN1C(=O)[C@H](NC(=O)Nc2cccc(C(=O)O)c2)CN(C2CCCCC2)c2ccccc21 [Z-360, Nastorazepide]
selectivity relative to CCK-1R (CCK-2R; CCK-2R versus CCK-1R): 672 | Kd (CCK-2R; CCK-2R): 0.47 nM
